These compounds were tested on MDA-MB-453 (assay: normalised response (% of control), CellTiter-Glo; higher = more viable cells (100 = DMSO, 0 = benzethonium chloride kill control)). Conditions: incubation time: 72 h.
Outline: (§1)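 Breast cancer cell lines, seeded at 20 µl suspension per well, were incubated for 72 h in 384-well plates containing compound at 5 concentrations. These concentrations rose in 10-fold steps over a 10,000-fold range set for each compound. CellTox Green fluorescence (485/520 nm) was read, then CellTiter-Glo luminescence after 10 min at room temperature, and each plate was normalised to 0.1 % DMSO (100) and a positive kill control (0). Values are normalised signals, each at one concentration.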
Work on `CC[C@H](CC#N)OC(=O)N[C@@H](C)c1cccc(NC(=O)Nc2ccc(-c3cnco3)c(OC)c2)c1` [AVN944] (100 nM) yielded a normalised response of 98.2%.
`CC(C)C[C@H](NC(=O)[C@H](CCc1ccccc1)NC(=O)CN1CCOCC1)C(=O)N[C@@H](Cc1ccccc1)C(=O)N[C@@H](CC(C)C)C(=O)[C@@]1(C)CO1` [Carfilzomib] (10 nM) gave a normalised response of 40.7%.
With `CCc1cnn2c(NCc3ccc[n+]([O-])c3)cc(N3CCCC[C@H]3CCO)nc12` [Dinaciclib] (10 nM) the normalised response was 94.8%.
Compound `CC(C)C(=O)Nc1ccc([N+](=O)[O-])c(C(F)(F)F)c1` [Flutamide] (100 nM) has a normalised response of 109%.
For `COc1cc2c(Oc3ccc(NC(=O)C4(C(=O)Nc5ccc(F)cc5)CC4)cc3F)ccnc2cc1OCCCN1CCOCC1` [Foretinib] (10 nM), the normalised response was 107%.
`COc1cc(Nc2ncc(F)c(Nc3ccc4c(n3)N(COP(=O)(O)O)C(=O)C(C)(C)O4)n2)cc(OC)c1OC` [Fostamatinib] (25 nM) gave a normalised response of 93.7%.
In the case of `CC[C@@H]1C(=O)N(C)c2cnc(Nc3ccc(C(=O)N[C@H]4CC[C@H](N5CCN(CC6CC6)CC5)CC4)cc3OC)nc2N1C(C)C` [Volasertib] (10 nM), the normalised response is reported as 65.4%.

Each compound was assayed on MFM-223 in the same assay as above. Conditions: incubation time: 72 h.
Outline: as §1
In the case of `CC(C)(C)Cn1c(N)nc2ccc(-c3[nH]c(C(C)(C)C)nc3-c3ccc(F)cc3)nc21` (100 nM), the normalised response is reported as 104%.
In the case of `CC[C@H](CC#N)OC(=O)N[C@@H](C)c1cccc(NC(=O)Nc2ccc(-c3cnco3)c(OC)c2)c1` [AVN944] (100 nM), the normalised response is reported as 98.2%.
For `CC(C)C[C@H](NC(=O)[C@H](CCc1ccccc1)NC(=O)CN1CCOCC1)C(=O)N[C@@H](Cc1ccccc1)C(=O)N[C@@H](CC(C)C)C(=O)[C@@]1(C)CO1` [Carfilzomib] (10 nM), the normalised response was 8.07%.
Compound `CCc1cnn2c(NCc3ccc[n+]([O-])c3)cc(N3CCCC[C@H]3CCO)nc12` [Dinaciclib] (10 nM) has a normalised response of 85.2%.
In the case of `CC(C)C(=O)Nc1ccc([N+](=O)[O-])c(C(F)(F)F)c1` [Flutamide] (100 nM), the normalised response is reported as 98%.
`COc1cc2c(Oc3ccc(NC(=O)C4(C(=O)Nc5ccc(F)cc5)CC4)cc3F)ccnc2cc1OCCCN1CCOCC1` [Foretinib] (10 nM) was tested, and the normalised response was 103%.
`COc1cc(Nc2ncc(F)c(Nc3ccc4c(n3)N(COP(=O)(O)O)C(=O)C(C)(C)O4)n2)cc(OC)c1OC` [Fostamatinib] (25 nM) gave a normalised response of 91.2%.
Compound `CC[C@@H]1C(=O)N(C)c2cnc(Nc3ccc(C(=O)N[C@H]4CC[C@H](N5CCN(CC6CC6)CC5)CC4)cc3OC)nc2N1C(C)C` [Volasertib] (10 nM) has a normalised response of 54.6%.

What follows are compounds tested on BT-549 in the same assay as above. Conditions: incubation time: 72 h.
Outline: as §1
`CC(C)(C)Cn1c(N)nc2ccc(-c3[nH]c(C(C)(C)C)nc3-c3ccc(F)cc3)nc21` (100 nM) was tested, and the normalised response was 105%.
In the case of `CC[C@H](CC#N)OC(=O)N[C@@H](C)c1cccc(NC(=O)Nc2ccc(-c3cnco3)c(OC)c2)c1` [AVN944] (100 nM), the normalised response is reported as 67.8%.
`CC(C)C[C@H](NC(=O)[C@H](CCc1ccccc1)NC(=O)CN1CCOCC1)C(=O)N[C@@H](Cc1ccccc1)C(=O)N[C@@H](CC(C)C)C(=O)[C@@]1(C)CO1` [Carfilzomib] (10 nM) was tested, and the normalised response was 6.23%.
In the case of `CCc1cnn2c(NCc3ccc[n+]([O-])c3)cc(N3CCCC[C@H]3CCO)nc12` [Dinaciclib] (10 nM), the normalised response is reported as 68.7%.
For `CC(C)C(=O)Nc1ccc([N+](=O)[O-])c(C(F)(F)F)c1` [Flutamide] (100 nM), the normalised response was 101%.
`COc1cc2c(Oc3ccc(NC(=O)C4(C(=O)Nc5ccc(F)cc5)CC4)cc3F)ccnc2cc1OCCCN1CCOCC1` [Foretinib] (10 nM) gave a normalised response of 105%.
Work on `COc1cc(Nc2ncc(F)c(Nc3ccc4c(n3)N(COP(=O)(O)O)C(=O)C(C)(C)O4)n2)cc(OC)c1OC` [Fostamatinib] (25 nM) yielded a normalised response of 104%.
With `CC[C@@H]1C(=O)N(C)c2cnc(Nc3ccc(C(=O)N[C@H]4CC[C@H](N5CCN(CC6CC6)CC5)CC4)cc3OC)nc2N1C(C)C` [Volasertib] (10 nM) the normalised response was 89.8%.

The compounds below were run on MDA-MB-231 in the same assay as above. Conditions: incubation time: 72 h.
Outline: as §1
`CC(C)(C)Cn1c(N)nc2ccc(-c3[nH]c(C(C)(C)C)nc3-c3ccc(F)cc3)nc21` (100 nM) was tested, and the normalised response was 98.6%.
`CC[C@H](CC#N)OC(=O)N[C@@H](C)c1cccc(NC(=O)Nc2ccc(-c3cnco3)c(OC)c2)c1` [AVN944] (100 nM) gave a normalised response of 91.3%.
`CC(C)C[C@H](NC(=O)[C@H](CCc1ccccc1)NC(=O)CN1CCOCC1)C(=O)N[C@@H](Cc1ccccc1)C(=O)N[C@@H](CC(C)C)C(=O)[C@@]1(C)CO1` [Carfilzomib] (10 nM) was tested, and the normalised response was 78.8%.
Compound `CCc1cnn2c(NCc3ccc[n+]([O-])c3)cc(N3CCCC[C@H]3CCO)nc12` [Dinaciclib] (10 nM) has a normalised response of 28.2%.
In the case of `CC(C)C(=O)Nc1ccc([N+](=O)[O-])c(C(F)(F)F)c1` [Flutamide] (100 nM), the normalised response is reported as 102%.
Work on `COc1cc2c(Oc3ccc(NC(=O)C4(C(=O)Nc5ccc(F)cc5)CC4)cc3F)ccnc2cc1OCCCN1CCOCC1` [Foretinib] (10 nM) yielded a normalised response of 97.7%.
`COc1cc(Nc2ncc(F)c(Nc3ccc4c(n3)N(COP(=O)(O)O)C(=O)C(C)(C)O4)n2)cc(OC)c1OC` [Fostamatinib] (25 nM) gave a normalised response of 101%.
With `CC[C@@H]1C(=O)N(C)c2cnc(Nc3ccc(C(=O)N[C@H]4CC[C@H](N5CCN(CC6CC6)CC5)CC4)cc3OC)nc2N1C(C)C` [Volasertib] (10 nM) the normalised response was 79.9%.

Each compound was assayed on HDQ-P1 in the same assay as above. Conditions: incubation time: 72 h.
Outline: as §1
`CC(C)(C)Cn1c(N)nc2ccc(-c3[nH]c(C(C)(C)C)nc3-c3ccc(F)cc3)nc21` (100 nM) showed a normalised response of 88.5%.
Work on `CC[C@H](CC#N)OC(=O)N[C@@H](C)c1cccc(NC(=O)Nc2ccc(-c3cnco3)c(OC)c2)c1` [AVN944] (100 nM) yielded a normalised response of 85.8%.
In the case of `CC(C)C[C@H](NC(=O)[C@H](CCc1ccccc1)NC(=O)CN1CCOCC1)C(=O)N[C@@H](Cc1ccccc1)C(=O)N[C@@H](CC(C)C)C(=O)[C@@]1(C)CO1` [Carfilzomib] (10 nM), the normalised response is reported as 83.5%.
`CCc1cnn2c(NCc3ccc[n+]([O-])c3)cc(N3CCCC[C@H]3CCO)nc12` [Dinaciclib] (10 nM) showed a normalised response of 71.2%.
With `CC(C)C(=O)Nc1ccc([N+](=O)[O-])c(C(F)(F)F)c1` [Flutamide] (100 nM) the normalised response was 98.5%.
For `COc1cc2c(Oc3ccc(NC(=O)C4(C(=O)Nc5ccc(F)cc5)CC4)cc3F)ccnc2cc1OCCCN1CCOCC1` [Foretinib] (10 nM), the normalised response was 96.8%.

Reference: the supplement of paper PMC4862054
